Test results: US20240050477A1, “LIPID NANOPARTICLE” (NATIONAL UNIVERSITY CORPORATION HOKKAIDO UNIVERSITY, priority 2021, published 2024)

Assays:
[1] = pKa of lipid nanoparticle measured using TNS; assay type: physicochemical; conditions: apparent pKa of the pH-sensitive cationic lipid constituting a lipid nanoparticle
Experimental: The pKa of lipid nanoparticles was measured using […] (TNS). TNS (final concentration: 0.75 mM) and the lipid nanoparticles (final concentration: 30 mM) were first mixed in a buffer solution adjusted to each pH. The fluorescence intensity of the prepared mixed solution was measured using a microplate reader.

[2] = system: GAPDH mRNA in NK-92 cells; assay: GAPDH gene knockdown activity of siGAPDH-encapsulated lipid nanoparticle in NK-92 cells (RT-qPCR); assay type: cell-based, human; conditions: siGAPDH-encapsulated LNP, siRNA 10-90 nM, 24 hours after transfection
Experimental: A NK cell line (NK-92 or NK-92MI) was transfected with each lipid nanoparticle. The knockdown activity of the siGAPDH- or siSMAD3-encapsulated lipid nanoparticle was examined by RT-qPCR using RNA extracted from the cells 24 hours later as a template.
First, the NK cell line was recovered into a 50 mL tube and centrifuged (130×g, 4° C., 5 min). The supernatant was removed, and the cells were suspended in 10 mL of a culture medium (Opti-MEM), counted, and then resuspended into 4×10^6 cells/mL in a culture medium. […]
The cells were recovered into a 1.5 mL tube from each well and centrifuged (800×g, 4° C., 3 min). […] Then, absorbance was measured using micro-volume spectrophotometer “Nano drop” (manufactured by Thermo Fisher Scientific Inc.) to measure the concentration and purity of the RNA.
Reverse-transcription reaction was performed with the recovered RNA as a template using an oligo dT primer and a random primer (6 mars) in a kit for reverse-transcription reaction (“PrimeScript RT reagent kit”, manufactured by Takara Bio Inc.). Then, a GAPDH or SMAD3 mRNA level was measured by real-time PCR with the obtained cDNA as a template using relative quantification based on the ΔΔCt method and β-actin (ACTB) as an endogenous gene. […]

Row | pKa [1] | Structure (SMILES) | GAPDH gene knockdown activity ([GAPDH mRNA level]/[ACTB mRNA level]) [2]
1 | 8.2 | CCCCCCCC/C=C\CCCCCCCC(=O)OCCCCCCC(O)(CCCCCCOC(=O)CCCCCCC/C=C\CCCCCCCC)CCCCN(C)C [CL1H6] | high gene knockdown activity at a small content ratio
2 | 6.35 | CCCCCCCC/C=C\CCCCCCCC(=O)OCCCCCCC(O)(CCCCCCOC(=O)CCCCCCC/C=C\CCCCCCCC)CCCCN(CCC)CCC [CL4H6] | –
3 | 7.3 | CCCCCCCC/C=C\CCCCCCCC(=O)OCCCCCCC(O)(CCCCCCOC(=O)CCCCCCC/C=C\CCCCCCCC)CCCCOC(=O)C1CCN(C)CC1 [CL15H6] | –
4 | 8.2 | CCCCC/C=C\C/C=C\CCCCCCCCC(O)(CCCCCCCC/C=C\C/C=C\CCCCC)CCCCN(C)C [YSK12-C4] | –
